Laboratory results: ChEMBL document CHEMBL1157143, “Modeling and synthesis of novel tight-binding inhibitors of cytochrome P450 2C9” (Bioorg Med Chem, 2008)

Columns and labels:
[1] = Dissociation constant, pKa of the compound
[2] = target: Cytochrome P450 2C9 (Homo sapiens, UniProt P11712); assay: Binding affinity to CYP2C9
Cytochrome P450 2C9, sequence (P11712 whole entry): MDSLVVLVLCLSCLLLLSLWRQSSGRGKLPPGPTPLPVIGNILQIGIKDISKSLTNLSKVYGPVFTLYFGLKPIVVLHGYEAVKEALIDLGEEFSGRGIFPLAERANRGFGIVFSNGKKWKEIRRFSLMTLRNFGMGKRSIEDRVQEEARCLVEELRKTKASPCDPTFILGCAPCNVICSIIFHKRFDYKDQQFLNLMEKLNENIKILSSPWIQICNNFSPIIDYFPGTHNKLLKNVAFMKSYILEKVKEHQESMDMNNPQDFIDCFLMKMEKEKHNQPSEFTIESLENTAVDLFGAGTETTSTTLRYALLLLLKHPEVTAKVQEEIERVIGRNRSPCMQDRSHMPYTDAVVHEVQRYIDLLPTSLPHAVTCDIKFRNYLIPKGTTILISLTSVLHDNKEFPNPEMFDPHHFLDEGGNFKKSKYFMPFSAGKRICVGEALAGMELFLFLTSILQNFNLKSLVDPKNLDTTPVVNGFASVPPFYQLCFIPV

CCCc1oc2ccccc2c(=O)c1C(=O)c1ccc(O)cc1
pKa [1]: 7.74
Ki [2]: 0.656 µM

CCc1oc2ccccc2c(=O)c1C(=O)c1cc(I)c(O)c(I)c1
pKa [1]: 4.89
Ki [2]: 0.023 µM

CCCc1oc2ccccc2c(=O)c1C(=O)c1cc(I)c(O)c(I)c1
pKa [1]: 4.89
Ki [2]: 0.0042 µM

CCCc1oc2ccccc2c(=O)c1C(=O)c1cc(I)c(OC)c(I)c1
Ki [2]: 0.0443 µM

CCc1oc2ccccc2c(=O)c1C(=O)c1cc(Br)c(O)c(Br)c1
pKa [1]: 4.72

Cc1oc2ccccc2c(=O)c1C(=O)c1cc(I)c(O)c(I)c1
pKa [1]: 4.89
Ki [2]: 0.041 µM

CCc1oc2ccccc2c(=O)c1C(=O)c1ccncc1
Ki [2]: 4.87 µM

Cc1oc2ccccc2c(=O)c1C(=O)c1ccc(O)cc1
pKa [1]: 7.74
Ki [2]: 6.74 µM

CCc1oc2ccccc2c(=O)c1C(=O)c1ccc(O)cc1
pKa [1]: 7.74
Ki [2]: 1.42 µM

CCCc1oc2ccccc2c(=O)c1C(=O)c1ccc(OC)cc1
Ki [2]: 3.12 µM

CCc1oc2ccccc2c(=O)c1C(=O)c1ccc(OC)cc1
Ki [2]: 6.48 µM

COc1ccc(C(=O)c2c(C)oc3ccccc3c2=O)cc1
Ki [2]: 5.93 µM
